Test results as given in ChEMBL document CHEMBL1770103, “Synthesis and biological evaluation of dibenz[b,f][1,5]oxazocine derivatives for agonist activity at κ-opioid receptor” (Eur J Med Chem, 2011).
pIC50: −log10 of the molar value. Active and inactive are the calls of the source. No cut-off for these calls is given here.

How the values were obtained:
[1] = target: Kappa-type opioid receptor (Rattus norvegicus) (UniProt P34975); experiment: Agonist activity at kappa opioid receptor in rat C6 cells assessed as induction of ERK1/2 phosphorylation at 40 uM after 10 min by Western blot analysis in presence of KOP antagonist norBNI; format: functional, cell-based
[2] = target: Kappa-type opioid receptor (Mus musculus, UniProt P33534); experiment: Displacement of [125I]dynorphin from kappa opioid receptor in BALB/c mouse brain membrane by liquid scintillation counting; format: cell membranes
[3] = target: Kappa-type opioid receptor (Mus musculus) (UniProt P33534); experiment: Displacement of [125I]dynorphin from kappa opioid receptor in BALB/c mouse brain membrane at 5 uM by liquid scintillation counting relative to control; format: cell membranes
[4] = target: Mu-type opioid receptor (Mus musculus) (UniProt P42866); settings: BALB/c, Brain, Membrane, at 5 µM
Sequence of Mu-type opioid receptor (Mus musculus) (P42866 whole entry): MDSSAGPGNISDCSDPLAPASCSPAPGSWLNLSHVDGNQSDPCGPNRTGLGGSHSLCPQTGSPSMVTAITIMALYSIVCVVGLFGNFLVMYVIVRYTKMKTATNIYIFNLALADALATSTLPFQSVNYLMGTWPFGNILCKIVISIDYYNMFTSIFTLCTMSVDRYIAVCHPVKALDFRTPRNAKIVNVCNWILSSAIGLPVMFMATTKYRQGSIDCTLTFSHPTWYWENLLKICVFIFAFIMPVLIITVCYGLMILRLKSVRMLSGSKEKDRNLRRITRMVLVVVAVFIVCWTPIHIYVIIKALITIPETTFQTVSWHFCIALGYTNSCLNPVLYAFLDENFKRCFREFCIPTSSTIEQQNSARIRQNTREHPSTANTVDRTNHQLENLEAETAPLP
Description: Displacement of [3H]DAMGO from mu opioid receptor in BALB/c mouse brain membrane at 5 uM by liquid scintillation counting relative to control

Sequence of Kappa-type opioid receptor (Mus musculus) (P33534 whole entry): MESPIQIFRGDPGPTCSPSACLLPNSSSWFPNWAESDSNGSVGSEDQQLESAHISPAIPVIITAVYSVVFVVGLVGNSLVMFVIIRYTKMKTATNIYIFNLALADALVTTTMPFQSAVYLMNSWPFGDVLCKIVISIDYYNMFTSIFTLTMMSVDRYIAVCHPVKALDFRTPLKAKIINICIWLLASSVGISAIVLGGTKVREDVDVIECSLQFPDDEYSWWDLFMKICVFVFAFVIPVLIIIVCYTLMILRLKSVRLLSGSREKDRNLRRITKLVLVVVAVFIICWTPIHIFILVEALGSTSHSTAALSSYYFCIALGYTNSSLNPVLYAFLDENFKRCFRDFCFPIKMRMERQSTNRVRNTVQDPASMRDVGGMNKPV
Sequence of Kappa-type opioid receptor (Rattus norvegicus) (P34975 whole entry): as the sequence (P33534 whole entry) above, with D11E, S17A, S51P, A308V counted along it
Sequence of Kappa-type opioid receptor (P33534 whole entry): as the sequence (P33534 whole entry) above

Compound	Activity [1]	pIC50 [2]	residual activity [3] [%]	residual activity [4] [%]
COc1ccc2c(c1)COc1ccccc1CN2c1ccccc1	inactive	5.66	29	99
c1ccc(N2Cc3ccccc3OCc3ccccc32)cc1			87	80
COc1ccc(N2Cc3cccc(OC)c3OCc3cc4c(cc32)OCO4)cc1			101	138
COc1ccc(N2Cc3cccc(OC)c3OCc3ccccc32)cc1			81	90
COc1ccccc1N1Cc2cccc(OC)c2OCc2ccccc21			119	89
COc1cccc2c1OCc1cc3c(cc1N(c1ccccc1)C2)OCO3			101	78
COc1ccc(N2Cc3ccccc3OCc3ccccc32)cc1			81	86
